Test results: patent US20260138976A1 (Hoffmann-La Roche Inc., priority 2022, published 2026)

Assays:
[1] = biological target: T1, DGKζ (hDGKzeta(1-928)-N-His) (Homo sapiens, UniProt Q13574); assay: In vitro DGK inhibition assay, DGKzeta ADP Glo (in house); assay type: biochemical; conditions: 2 nM DGKζ, 50 μM ATP, 125 uM DLG in liposomes, 1 hour reaction
T1 construct: hDGKzeta(1-928)-N-His; His (N); made in house; host or cells: Sf21 insect cells (baculovirus)
Procedure, shortened: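 ADP-Glo luminescence measured ADP formed over 1 h by Sf21-expressed full-length human enzymes: DGKα at 4 nM with 25 µM ATP, DGKζ at 2 nM with 50 µM ATP, both on 125 µM DLG in PS/PC liposomes. Dose–response used 11 threefold dilutions at 2% final DMSO.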

primary human T-cells = assay: IL2 secretion measurements (24 h, CD3-stimulated T-cells, PBS counter screen); assay type: cell-based; conditions: for Emax IL2 (% activation): CD3 condition, normalised to DMSO (neutral) and 20 μM reference compound A1 = 100%; for EC50: Homo sapiens, T-cell, CD3-stimulated primary human T-cells, IL2 secretion, fitted sigmoidal curve, read-out: Tcell IL2 CD3 EC50
Procedure, shortened: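 IL-2 secretion was measured by ProQuantum or ELISA after 24 h culture of expanded human T-cells with compound, on CD3-antibody-coated plates or PBS counter-screen plates. Dosing used 5–6 points from a 20 or 10 μM final top at 3.333-fold steps in 0.2% DMSO. EC50/Emax were scaled between DMSO and 20 μM reference A1.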

T1 sequence (Q13574 whole entry): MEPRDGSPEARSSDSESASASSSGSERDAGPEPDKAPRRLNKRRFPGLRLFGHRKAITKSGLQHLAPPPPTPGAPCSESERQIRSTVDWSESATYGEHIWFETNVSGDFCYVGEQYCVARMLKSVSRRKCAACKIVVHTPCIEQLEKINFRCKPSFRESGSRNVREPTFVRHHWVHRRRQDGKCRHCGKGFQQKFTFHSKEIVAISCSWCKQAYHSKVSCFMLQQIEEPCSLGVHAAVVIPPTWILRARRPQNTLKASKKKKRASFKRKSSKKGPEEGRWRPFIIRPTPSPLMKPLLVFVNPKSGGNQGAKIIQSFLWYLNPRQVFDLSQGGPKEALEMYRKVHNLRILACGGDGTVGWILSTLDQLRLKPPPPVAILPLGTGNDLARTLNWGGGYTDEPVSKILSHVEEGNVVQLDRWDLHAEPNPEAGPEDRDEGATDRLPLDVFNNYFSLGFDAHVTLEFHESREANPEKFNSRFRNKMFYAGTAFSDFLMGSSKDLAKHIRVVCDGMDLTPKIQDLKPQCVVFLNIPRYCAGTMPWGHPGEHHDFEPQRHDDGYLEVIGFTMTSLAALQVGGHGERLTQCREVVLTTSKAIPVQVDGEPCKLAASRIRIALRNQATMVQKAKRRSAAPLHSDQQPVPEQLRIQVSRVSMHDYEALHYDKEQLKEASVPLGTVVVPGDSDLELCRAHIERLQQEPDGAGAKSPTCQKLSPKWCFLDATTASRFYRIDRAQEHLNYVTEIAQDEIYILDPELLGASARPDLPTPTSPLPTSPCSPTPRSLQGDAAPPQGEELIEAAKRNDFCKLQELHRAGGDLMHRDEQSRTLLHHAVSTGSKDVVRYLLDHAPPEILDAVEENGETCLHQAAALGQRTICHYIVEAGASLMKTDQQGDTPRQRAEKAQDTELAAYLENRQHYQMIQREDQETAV

Structure (SMILES)	IC50 [1]	Emax IL2 (% activation) (primary human T-cells)	EC50 (primary human T-cells)
Cn1ccc(-c2ccc(CN3C(=O)[C@@H](N)CS(=O)(=O)c4cc(F)c(-c5nnc(C(C)(C)C)o5)cc43)cc2)n1 [Example 1, (3R)-3-amino-7-(5-tert-butyl-1,3,4-oxadiazol-2-yl)-8-fluoro-5-[[4-(1-methylpyrazol-3-yl)phenyl]methyl]-1,1-dioxo-2,3-dihydro-1λ^6,5-benzothiazepin-4-one]	488 nM	91 % activation	1310 nM
Cc1noc(-c2ccc(CN3C(=O)[C@@H](N)CS(=O)(=O)c4cc(F)c(-c5nnc(C(C)(C)C)o5)cc43)cc2)n1 [Example 2]	128 nM	168 % activation	891 nM
CC(C)Nc1nnc(-c2cc3c(cc2F)S(=O)(=O)C[C@H](N)C(=O)N3Cc2ccc(-c3noc(C(F)(F)F)n3)cc2)o1 [Example 6, (3R)-3-amino-8-fluoro-7-[5-(isopropylamino)-1,3,4-oxadiazol-2-yl]-1,1-dioxo-5-[[4-[5-(trifluoromethyl)-1,2,4-oxadiazol-3-yl]phenyl]methyl]-2,3-dihydro-1λ^6,5-benzothiazepin-4-one]	696 nM	212 % activation	1170 nM
CC(C)(C)c1nc(-c2cc3c(cc2F)S(=O)(=O)C[C@H](N)C(=O)N3Cc2ccc(-c3ccc(CO)cc3)nc2)no1 [Example 7, (3R)-3-amino-7-(5-tert-butyl-1,2,4-oxadiazol-3-yl)-8-fluoro-5-[[6-[4-(hydroxymethyl)phenyl]-3-pyridyl]methyl]-1,1-dioxo-2,3-dihydro-1λ^6,5-benzothiazepin-4-one]	1400 nM	38 % activation	> 10000 nM
N[C@H]1CS(=O)(=O)c2cc(F)c(-c3noc(N4CCCC4)n3)cc2N(Cc2ccc(-c3noc(C(F)(F)F)n3)nc2)C1=O [Example 15, (3R)-3-amino-8-fluoro-1,1-dioxo-7-(5-pyrrolidin-1-yl-1,2,4-oxadiazol-3-yl)-5-[[6-[5-(trifluoromethyl)-1,2,4-oxadiazol-3-yl]-3-pyridyl]methyl]-2,3-dihydro-1λ^6,5-benzothiazepin-4-one]	466 nM	39 % activation	> 10000 nM
Cc1noc(-c2ccc(CN3C(=O)[C@@H](N)CS(=O)(=O)c4ccc(-c5nnc(C(C)(C)C)o5)cc43)cc2)n1 [Example 20, (3R)-3-amino-7-(5-tert-butyl-1,3,4-oxadiazol-2-yl)-5-[[4-(3-methyl-1,2,4-oxadiazol-5-yl)phenyl]methyl]-1,1-dioxo-2,3-dihydro-1λ^6,5-benzothiazepin-4-one]	1240 nM	82 % activation	7630 nM
Cn1ccc(-c2ccc(CN3C(=O)[C@@H](N)CS(=O)(=O)c4ccc(-c5nnc(C(C)(C)C)o5)cc43)cc2)n1 [Example 21]	2310 nM	53 % activation	8010 nM
CC(C)(C)c1nnc(-c2ccc3c(c2)N(Cc2ccc(-c4noc(C(F)(F)F)n4)cc2)C(=O)[C@@H](N)CS3(=O)=O)o1 [Example 23, (3R)-3-amino-7-(5-tert-butyl-1,3,4-oxadiazol-2-yl)-1,1-dioxo-5-[[4-[5-(trifluoromethyl)-1,2,4-oxadiazol-3-yl]phenyl]methyl]-2,3-dihydro-1λ^6,5-benzothiazepin-4-one]	523 nM	120 % activation	769 nM
CC(C)(C)c1nnc(-c2ccc3c(c2)N(Cc2ccc(-n4cc(C(F)(F)F)cn4)cc2)C(=O)[C@@H](N)CS3(=O)=O)o1 [Example 25, (3R)-3-amino-7-(5-tert-butyl-1,3,4-oxadiazol-2-yl)-1,1-dioxo-5-[[4-[4-(trifluoromethyl)pyrazol-1-yl]phenyl]methyl]-2,3-dihydro-1λ^6,5-benzothiazepin-4-one]	1270 nM	137 % activation	609 nM
COC(=O)N1CC2CC(c3nnc(-c4ccc5c(c4)N(Cc4ccc(-c6ccc(OC)cc6)cc4)C(=O)[C@@H](N)CS5(=O)=O)o3)(C2)C1 [Example 59, methyl 1-[5-[(3R)-3-amino-5-[[4-(4-methoxyphenyl)phenyl]methyl]-1,1,4-trioxo-2,3-dihydro-1λ^6,5-benzothiazepin-7-yl]-1,3,4-oxadiazol-2-yl]-3-azabicyclo[3.1.1]heptane-3-carboxylate]	1140 nM	175 % activation	596 nM
COC(=O)N1CC2CC(c3nnc(-c4ccc5c(c4)N(Cc4ccc(-c6ccc(C(F)(F)F)cc6)cc4)C(=O)[C@@H](N)CS5(=O)=O)o3)(C2)C1 [Example 60, methyl 1-[5-[(3R)-3-amino-1,1,4-trioxo-5-[[4-[4-(trifluoromethyl)phenyl]phenyl]methyl]-2,3-dihydro-1λ^6,5-benzothiazepin-7-yl]-1,3,4-oxadiazol-2-yl]-3-azabicyclo[3.1.1]heptane-3-carboxylate]	3080 nM	163 % activation	424 nM

The next lines start with results.

IC50 [1]	Structure (SMILES)	Emax IL2 (% activation) (primary human T-cells)	EC50 (primary human T-cells)
758 nM	CC(C)(C)c1nnc(-c2ccc3c(c2)N(Cc2ccc(-n4ccc(C(F)(F)F)n4)cc2)C(=O)[C@@H](N)CS3(=O)=O)o1 [Example 27]	160 % activation	476 nM
4260 nM	CC(C)(C)c1nnc(-c2ccc3c(c2)N(Cc2ccc(-n4cnc(C(F)(F)F)c4)cc2)C(=O)[C@@H](N)CS3(=O)=O)o1 [Example 28, (3R)-3-amino-7-(5-tert-butyl-1,3,4-oxadiazol-2-yl)-1,1-dioxo-5-[[4-[4-(trifluoromethyl)imidazol-1-yl]phenyl]methyl]-2,3-dihydro-1λ^6,5-benzothiazepin-4-one]	81 % activation	5010 nM
2640 nM	CC(N)(c1nnc(-c2ccc3c(c2)N(Cc2ccc(-c4noc(CC(F)(F)F)n4)cc2)C(=O)[C@@H](N)CS3(=O)=O)o1)C(F)(F)F (stereo partly drawn) [Example 33, (3R)-3-amino-7-[5-(1-amino-2,2,2-trifluoro-1-methyl-ethyl)-1,3,4-oxadiazol-2-yl]-1,1-dioxo-5-[[4-[5-(2,2,2-trifluoroethyl)-1,2,4-oxadiazol-3-yl]phenyl]methyl]-2,3-dihydro-1λ^6,5-benzothiazepin-4-one]	24 % activation	> 10000 nM
1260 nM	CC(C)(C#N)c1nnc(-c2ccc3c(c2)N(Cc2ccc(-c4ccc(C(F)(F)F)cc4)cc2)C(=O)[C@@H](N)CS3(=O)=O)o1 [Example 46]	263 % activation	331 nM
842 nM	CC(C)(C#N)c1nnc(-c2ccc3c(c2)N(Cc2ccc(-c4ccc(C(F)(F)F)cn4)cc2)C(=O)[C@@H](N)CS3(=O)=O)o1 [Example 47]	163 % activation	670 nM
1590 nM	CC1(c2nnc(-c3ccc4c(c3)N(Cc3ccc(-c5ccc(C(F)(F)F)cc5)cc3)C(=O)[C@@H](N)CS4(=O)=O)o2)CCO1 (stereo partly drawn) [Example 48, (3R)-3-amino-7-[5-(2-methyloxetan-2-yl)-1,3,4-oxadiazol-2-yl]-1,1-dioxo-5-[[4-[4-(trifluoromethyl)phenyl]phenyl]methyl]-2,3-dihydro-1lambda6,5-benzothiazepin-4-one]	114 % activation	984 nM
2320 nM	C[C@@](N)(c1nnc(-c2ccc3c(c2)N(Cc2ccc(-c4noc(C(F)(F)F)n4)cc2)C(=O)[C@@H](N)CS3(=O)=O)o1)C(F)(F)F [Example 52, (3R)-3-amino-7-[5-[(1R)-1-amino-2,2,2-trifluoro-1-methyl-ethyl]-1,3,4-oxadiazol-2-yl]-1,1-dioxo-5-[[4-[5-(trifluoromethyl)-1,2,4-oxadiazol-3-yl]phenyl]methyl]-2,3-dihydro-1λ^6,5-benzothiazepin-4-one]	164 % activation	645 nM
2420 nM	C[C@](N)(c1nnc(-c2ccc3c(c2)N(Cc2ccc(-c4noc(C(F)(F)F)n4)cc2)C(=O)[C@@H](N)CS3(=O)=O)o1)C(F)(F)F [Example 53, (3R)-3-amino-7-[5-[(1S)-1-amino-2,2,2-trifluoro-1-methyl-ethyl]-1,3,4-oxadiazol-2-yl]-1,1-dioxo-5-[[4-[5-(trifluoromethyl)-1,2,4-oxadiazol-3-yl]phenyl]methyl]-2,3-dihydro-1λ^6,5-benzothiazepin-4-one]	187 % activation	2070 nM
20300 nM	N[C@H]1CS(=O)(=O)c2ccc(-c3nnc(C4(CO)CCCO4)o3)cc2N(Cc2ccc(-c3ccc(C(F)(F)F)cc3)cc2)C1=O (stereo partly drawn) [Example 55]	74 % activation	3110 nM
1720 nM	COc1ccc(-c2ccc(CN3C(=O)[C@@H](N)CS(=O)(=O)c4ccc(-c5nnc(C6(CO)CCCO6)o5)cc43)cc2)cc1 (stereo partly drawn) [Example 63, (3R)-3-amino-7-[5-[2-(hydroxymethyl)tetrahydrofuran-2-yl]-1,3,4-oxadiazol-2-yl]-5-[[4-(4-methoxyphenyl)phenyl]methyl]-1,1-dioxo-2,3-dihydro-1λ^6,5-benzothiazepin-4-one]	78 % activation	2410 nM
6440 nM	COC(F)(c1nnc(-c2ccc3c(c2)N(Cc2ccc(-c4nnc(C5CC5)o4)cc2)C(=O)[C@@H](N)CS3(=O)=O)o1)C(F)(F)F (stereo partly drawn) [Example 65]	92 % activation	1420 nM
